The numbers were not newly measured in EP0668291A2, “Mammalian augmenter of liver regenerating and variants thereof” (Toyo Boseki Kabushiki Kaisha, priority 1994, dated 1995), which cites them from elsewhere.

This series concerns hepatocytes. Particulars: earlier work.

With `N[C@@H](Cc1cc(I)c(Oc2ccc(O)c(I)c2)c(I)c1)C(=O)O` [thyroxin T3, tri-iodothyronine], the hepatotrophic effect entry is reported as “weakly hepatotrophic”.
